From patent publication US4250255A, “Assay method for isoenzyme activity” (Eastman Kodak Company, priority 1977, dated 1981)
Like-named read-outs stand apart in the source and are kept apart here.

Experiments:
LD3 = target: T1, LD3 (Sus scrofa, UniProt P00336+P00339); experiment: LDH activity assay with amphiphile, LDH isoenzymes; type: biochemical, porcine; conditions: pH 7.4, read-out: LD3 activity remaining relative to buffer
T1 construct: porcine LDH, LD1, LD2, LD3, LD4 and LD5 in the form of ammonium sulfate suspensions
Experimental: (§1) 3. Beef heart LDH (Sigma Chemical Co., Type III), rabbit muscle LDH (Sigma Chemical Co., Type V) and porcine LDH, LD1, LD2, LD3, LD4 and LD5 in the form of ammonium sulfate suspensions were used for these examples.
(§2) The assay for LDH activity in both the absence and presence of surfactant was conducted as follows. […] The resulting solution contains approximately 5 units/ml. […] To the equilibrated solution […]. of the enzyme solution was added, and the cuvette was rapidly shaken while covering the top of the cuvette with a small piece of Parafilm® and placed back into the spectrophotometer.
(§3) Amphiphile solutions were prepared by weighing out a given amount of amphiphile, e.g., 100 mg, and preparing a stock solution in 30 mM sodium phosphate buffer in 100 ml. volumetric flask. Solutions of lower amphiphile concentration were prepared by making the appropriate dilutions from the stock solution.

LD4 = target: T2, LD4 (Sus scrofa, UniProt P00336+P00339); experiment: LDH activity assay with amphiphile, LDH isoenzymes; type: biochemical, porcine; conditions: 7 mM DSS; FIG. 8
T2 construct: porcine LDH, LD1, LD2, LD3, LD4 and LD5 in the form of ammonium sulfate suspensions
Experimental: as §1, §2, §3

LD2 = target: T3, LD2 (Sus scrofa, UniProt P00336+P00339); experiment: LDH activity assay with amphiphile, LDH isoenzymes; type: biochemical, porcine; conditions: pH 7.4, read-out: LD2 activity remaining relative to buffer
T3 construct: porcine LDH, LD1, LD2, LD3, LD4 and LD5 in the form of ammonium sulfate suspensions
Experimental: as §1, §2, §3

LD1 and LD5 = experiment: Screening of amphiphiles for ability to discriminate between LD1 and LD5
Experimental: A series of solutions was prepared covering a range of concentrations for each amphiphile to be tested. The activities of both LD1 and LD5 were determined in the presence of the various concentrations of each amphiphile and compared with enzyme activities in buffer (relative activity).
Enzyme activity in the presence and absence of amphiphile was measured by the following procedure: Stock solutions of NADH (4 mM) and pyruvate (40 mM) were prepared daily in 30 mM sodium phosphate buffer, pH 7.4. Enzyme solutions were prepared daily by withdrawing 5 μl of the stock enzyme solutions with a Hamilton syringe and diluting to 5 ml with 30 mM sodium phosphate buffer. (The resulting solution contains approximately 5 U of enzyme/ml.) The enzyme assay was run by pipetting 2.7 ml of buffer or buffer surfactant solution into a 10 mm path length quartz cuvette, and 100 μl each of NADH and pyruvate stock solutions were added. […] Enzyme solution was added with good mixing; the absorbance decrease at 340 nm was measured as a function of time. The rate of the reaction was determined by measuring the slope of the initial absorbance decrease, i.e., within the first 50 seconds of the reaction.

LD1 = LD1 (Sus scrofa, UniProt P00336); experiment: LDH activity assay with amphiphile, LDH isoenzymes; type: biochemical, porcine; set-up: porcine LDH, LD1, LD2, LD3, LD4 and LD5 in the form of ammonium sulfate suspensions
Experimental: as §1, §2, §3

LD1 (beef heart) = target: T4, LD1 (beef heart) (Bos taurus, UniProt Q5E9B1); experiment: LDH activity assay (pyruvate + NADH, absorbance decrease at 340 nm); type: biochemical; conditions: DSS 8.65 mM; CP 1 mM; FIG. 1B
T4 construct: Beef heart LDH (Sigma Chemical Co., Type III); purchased Sigma Chemical Co. Type III; host or cells: beef heart
Experimental: as §2, §3
(§4) The LDH enzyme assay (pyruvate+NADH→) is measured by the decrease in NADH absorbance at 340 nm with respect to time.

LD5 (rabbit muscle) = target: T5, LD5 (rabbit muscle) (Oryctolagus cuniculus, UniProt P13491); experiment: as above; type: biochemical
T5 construct: rabbit muscle LDH (Sigma Chemical Co., Type V); purchased Sigma Chemical Co. Type V; host or cells: rabbit muscle
Experimental: as §2, §3, §4

LD5 = LD5 (Sus scrofa, UniProt P00339); experiment: LDH activity assay with amphiphile, LDH isoenzymes; type: biochemical, porcine; set-up: LD5 from two different species, i.e., rabbit muscle and hog muscle; from tissue; host or cells: hog muscle; conditions: 7 mM DSS; FIG. 8
Experimental: as §1, §2, §3

human LD4 = target: T6, human LD4 (Homo sapiens, UniProt P00338+P07195); experiment: LDH assay with human enzyme-containing serum; type: biochemical; conditions: 0.1 M DSS; pH 7.8; 14% protein
T6 construct: A specific human LDH isoenzyme (obtained from liver homogenate or red blood cell); from tissue; host or cells: human liver homogenate or red blood cell
Experimental: as §2
(§5) Pooled human serum, kept frozen until ready for use, was raised to pH 11.5 until all LDH activity was destroyed. The pH was then adjusted to 7.4 and the serum was again assayed for LDH activity to ensure that no LDH had been reactivated. A specific human LDH isoenzyme (obtained from liver homogenate or red blood cell) was then added to the pool to give an enzyme concentration of ~100 U/l. The spiked serum samples were refrigerated between uses and respiked when necessary. Fresh serum was prepared weekly.
(§6) 8. The assay method used is the same as described above for Examples 1-12, except that the test samples consisted of 25-30 μl of serum instead of 100 μl of aqueous enzyme solution.

human LD1 = target: T7, human LD1 (Homo sapiens, UniProt P07195); experiment: LDH assay with human enzyme-containing serum; type: biochemical; conditions: 0.1 M DSS; pH 7.8; 14% protein
T7 construct: A specific human LDH isoenzyme (obtained from liver homogenate or red blood cell); from tissue; host or cells: human liver homogenate or red blood cell
Experimental: as §2, §5, §6

human LD3 = target: T8, human LD3 (Homo sapiens, UniProt P00338+P07195); experiment: LDH assay with human enzyme-containing serum; type: biochemical; conditions: 0.1 M DSS; pH 7.8; 14% protein
T8 construct: A specific human LDH isoenzyme (obtained from liver homogenate or red blood cell); from tissue; host or cells: human liver homogenate or red blood cell
Experimental: as §2, §5, §6

human LD2 = target: T9, human LD2 (Homo sapiens, UniProt P00338+P07195); experiment: LDH assay with human enzyme-containing serum; type: biochemical; conditions: 0.1 M DSS; pH 7.8; 14% protein
T9 construct: A specific human LDH isoenzyme (obtained from liver homogenate or red blood cell); from tissue; host or cells: human liver homogenate or red blood cell
Experimental: as §2, §5, §6

human LD5 = target: T10, human LD5 (Homo sapiens, UniProt P00338); experiment: LDH assay with human enzyme-containing serum; type: biochemical; conditions: 0.1 M DSS; pH 7.8; 14% protein
T10 construct: A specific human LDH isoenzyme (obtained from liver homogenate or red blood cell); from tissue; host or cells: human liver homogenate or red blood cell
Experimental: as §2, §5, §6

mMDH = target: T11, mMDH (Sus scrofa, UniProt P00346); experiment: Assay for MDH (oxalacetic acid + NADH, 340 nm); type: biochemical, porcine; conditions: FIG. 17
T11 construct: Porcine cMDH and mMDH were used as ammonium sulfate suspensions
T11 sequence (P00346 25-338): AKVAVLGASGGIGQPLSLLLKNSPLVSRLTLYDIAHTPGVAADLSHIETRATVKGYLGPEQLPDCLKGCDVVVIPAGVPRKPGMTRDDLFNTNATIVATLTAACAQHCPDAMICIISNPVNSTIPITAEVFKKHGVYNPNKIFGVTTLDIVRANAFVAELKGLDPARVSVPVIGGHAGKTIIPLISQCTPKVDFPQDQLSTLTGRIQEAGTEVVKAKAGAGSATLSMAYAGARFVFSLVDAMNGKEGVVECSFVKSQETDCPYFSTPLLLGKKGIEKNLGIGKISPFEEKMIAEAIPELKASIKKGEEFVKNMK
Experimental: 1. Porcine cMDH and mMDH were used as ammonium sulfate suspensions. Typically, 5 μl of the enzyme stock solutions were diluted to 10 ml with 30 mM phosphate buffer, pH 7.4, prior to use. The resulting enzyme solutions were stored in ice water; 100 μl aliquots were withdrawn for assay except where another amount is specified.
The assay is based on conversion of oxalacetic acid to malate in the presence of NADH and MDH. The assay was made [formula] in 30 mM phosphate buffer, at ambient temperature, with and without appropriate surfactant concentrations, and contained 0.17 mM OAA and 0.13 mM NADH. The reaction was followed by monitoring the decrease in absorbance at 340 nm using either a Beckman 25 or Cary 118 spectrophotometer. The OAA solutions were stored over ice to prevent hydrolysis to pyruvic acid.

[1] = target: T12, LDH isoenzymes (LD5 in the presence of LD1) (Oryctolagus cuniculus, UniProt P13491); experiment: Anionic amphiphiles tested for specific interaction with LDH isoenzymes (Table 2); type: biochemical
T12 construct: LD1 (LDHB tetramer) only as comparison
Experimental: as §2, §3
A number of anionic amphiphiles were investigated for specific inactivation of LD5 in the presence of LD1 and these compounds are listed in Table 2.

CCCCCCCCCCOS(=O)(=O)[O-].[Na+] [DSS, sodium decylsulfate]
remaining activity at 7000 µM (LD3): ~30%
LD4 activity relative to buffer (LD4): all the LD5 and LD4 activity is destroyed
remaining activity at 7000 µM (LD2): ~60%
discrimination of LDH isoenzymes (LD1 and LD5): excellent discriminators
Effectiveness (LDH isoenzyme inhibition specificity, LD1 vs LD5) (LD1 and LD5; range of amphiphile concentrations, relative activity vs buffer): ++
LD1 activity in amphiphile solution compared with buffer (LD1; 9 mM DSS in 30 mM phosphate buffer, pH 7.4, FIG. 10): less than control LD1 activity in buffer
isoenzyme activity beyond 9 mM amphiphile (LD1; DSS beyond 9 mM, FIG. 8): only LD1 continues to show activity
remaining activity at 7000 µM (LD1; pH 7.4, read-out: LD1 activity remaining relative to buffer): ~65%
LD1 (beef heart) activity in the presence of amphiphile (LD1 (beef heart)): almost no loss in LD1 activity
LD5 (rabbit muscle) activity in the presence of amphiphile (LD5 (rabbit muscle); DSS 8.65 mM, CP 1 mM, FIG. 1A): rapidly inactivates
time to complete inactivation of LD5 (LD5 (rabbit muscle); anionic detergent (DSS), dead time of the instrument): ≤ 5 s
LD5 activity relative to buffer (LD5): all the LD5 and LD4 activity is destroyed
human LD4 activity (human LD4): completely deactivated
human LD1 activity (human LD1): fully active
human LD3 activity (human LD3): completely deactivated
human LD2 activity (human LD2): completely deactivated
human LD5 activity (human LD5): completely deactivated
inactivation of mMDH relative to cMDH (mMDH): clear preferential inactivation of mMDH relative to cMDH
Interaction (specific inactivation of LD5 in the presence of LD1) [1]: useful positive results
Interaction (specific inactivation of LD5 in the presence of LD1) ([1]; listed as sodium decylsulfate): specific
